Measured values: PubChem BioAssay AID330 (DTP/NCI, 2004)
Several values for one entry are separate records, joined by “and”; a condition that tells them apart may be missing. Identical values can stand only once. Toxic doses and inconclusive results are not listed.

Tested on: P388 leukemia ip, CD2F1 mice, survival T/C
Assay: NCI In Vivo Anticancer Drug Screen. Data for tumor model P388 Leukemia (intraperitoneal) in CD2F1 (CDF1) mice
Settings: endpoint: median survival time, higher = longer survival
Outline: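 Mice carrying the transplanted tumor received test compound or vehicle. Survival was recorded in each group, and the value is the treated-group measurement divided by that of the vehicle-treated control group.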

[1] = dose: 6.25 mg/kg/injection, schedule: Q01DX009 (ip), vehicle: saline with Tween-80
[2] = dose: 12.5 mg/kg/injection, schedule: Q01DX009 (ip), vehicle: saline with Tween-80
[3] = dose: 25.0 mg/kg/injection, schedule: Q01DX009 (ip), vehicle: saline with Tween-80
[4] = dose: 50.0 mg/kg/injection, schedule: Q01DX009 (ip), vehicle: saline with Tween-80
[5] = dose: 100.0 mg/kg/injection, schedule: Q01DX009 (ip), vehicle: saline with Tween-80
[6] = dose: 200.0 mg/kg/injection, schedule: Q01DX009 (ip), vehicle: saline with Tween-80

Structure (SMILES): CC1OC1C(=O)C1(O)C(C)C(O)C23OC2(C(O)c2c(O)cccc2C3=O)C1O (centres undefined)
- T/C (dose: 1.0 mg/kg/injection, schedule: Q01DX009 (ip), vehicle: Klucel (hydroxypropylcellulose) (HPC)): 104 % of control and 118 % of control
- T/C (dose: 2.0 mg/kg/injection, schedule: Q01DX009 (ip), vehicle: Klucel (hydroxypropylcellulose) (HPC)): 154 % of control
- T/C (dose: 4.0 mg/kg/injection, schedule: Q01DX009 (ip), vehicle: Klucel (hydroxypropylcellulose) (HPC)): 121 % of control

Structure (SMILES): COC(=O)C1(CC(=O)c2ccc(Cl)cc2Cl)NC(=S)NC(=O)C1C#N (centres undefined)
- T/C (dose: 60.0 mg/kg/injection, schedule: Q01DX005 (ip), vehicle: saline with Tween-80): 91 % of control
- T/C (dose: 120.0 mg/kg/injection, schedule: Q01DX005 (ip), vehicle: saline with Tween-80): 92 % of control

Structure (SMILES): Fc1cccc(-c2nn[nH]n2)c1
- T/C (dose: 100.0 mg/kg/injection, schedule: Q04DX002 (ip), vehicle: saline with Tween-80): 102 % of control
- T/C (dose: 200.0 mg/kg/injection, schedule: Q04DX002 (ip), vehicle: saline with Tween-80): 107 % of control
- T/C (dose: 400.0 mg/kg/injection, schedule: Q04DX002 (ip), vehicle: saline with Tween-80): 116 % of control

Structure (SMILES): CCCCCCCCCCC1(O)OC(=O)C(C)=C1C (centres undefined)
- T/C (dose: 12.5 mg/kg/injection, schedule: Q04DX003 (ip), vehicle: saline with Tween-80): 100 % of control
- T/C (dose: 25.0 mg/kg/injection, schedule: Q04DX003 (ip), vehicle: saline with Tween-80): 101 % of control
- T/C (dose: 50.0 mg/kg/injection, schedule: Q04DX003 (ip), vehicle: saline with Tween-80): 100 % of control

Structure (SMILES): COc1cc2c(c(OC)c1OC)-c1ccc(SCc3ccccc3)c(=O)cc1[C@@H](NC(C)=O)CC2
- T/C (dose: 1.56 mg/kg/injection, schedule: Q01DX009 (ip), vehicle: Klucel (hydroxypropylcellulose) (HPC)): 105 % of control and 111 % of control and 122 % of control
- T/C (dose: 1.56 mg/kg/injection, schedule: Q01DX009 (ip), vehicle: saline with Tween-80): 96 % of control
- T/C (dose: 3.12 mg/kg/injection, schedule: Q01DX009 (ip), vehicle: Klucel (hydroxypropylcellulose) (HPC)): 105 % of control and 123 % of control
- T/C (dose: 3.12 mg/kg/injection, schedule: Q01DX009 (ip), vehicle: saline with Tween-80): 105 % of control
- T/C [1]: 105 % of control
- T/C (dose: 12.5 mg/kg/injection, schedule: Q01DX009 (ip), vehicle: Klucel (hydroxypropylcellulose) (HPC)): 169 % of control and 214 % of control
- T/C (dose: 25.0 mg/kg/injection, schedule: Q01DX009 (ip), vehicle: Klucel (hydroxypropylcellulose) (HPC)): 92 % of control

Structure (SMILES): Nc1nn(-c2cccc(C(F)(F)F)c2)c2cccc[n+]12
- T/C [2]: 100 % of control
- T/C [3]: 105 % of control
- T/C (dose: 25.0 mg/kg/injection, schedule: Q01DX009 (ip), vehicle: water): 111 % of control
- T/C [4]: 100 % of control
- T/C (dose: 50.0 mg/kg/injection, schedule: Q01DX009 (ip), vehicle: water): 106 % of control

Structure (SMILES): OCc1c(-c2ccccc2)nc2n1CCS2
- T/C (dose: 100.0 mg/kg/injection, schedule: Q01DX001 (ip), vehicle: Klucel (hydroxypropylcellulose) (HPC)): 102 % of control
- T/C (dose: 200.0 mg/kg/injection, schedule: Q01DX001 (ip), vehicle: Klucel (hydroxypropylcellulose) (HPC)): 102 % of control
- T/C (dose: 400.0 mg/kg/injection, schedule: Q01DX001 (ip), vehicle: Klucel (hydroxypropylcellulose) (HPC)): 98 % of control

Structure (SMILES): COc1cc2c(c3c1C(=O)c1c(cc4c(c1O)C(OC)CC(C)(O)C4)C3=O)OC1OC2(C)C(O)C(N(C)C)C1O (centres undefined)
- T/C (dose: 1.25 mg/kg/injection, schedule: Q01DX009 (ip), vehicle: other): 117 % of control
- T/C (dose: 2.5 mg/kg/injection, schedule: Q01DX009 (ip), vehicle: other): 98 % of control
- T/C (dose: 5.0 mg/kg/injection, schedule: Q01DX009 (ip), vehicle: other): 102 % of control
- T/C (dose: 20.0 mg/kg/injection, schedule: Q01DX009 (ip), vehicle: other): 124 % of control
- T/C (dose: 40.0 mg/kg/injection, schedule: Q01DX009 (ip), vehicle: other): 123 % of control
- T/C (dose: 200.0 mg/kg/injection, schedule: Q01DX009 (ip), vehicle: other): 179 % of control

Structure (SMILES): NC(=S)Oc1ccccc1
- T/C [1]: 103 % of control
- T/C [2]: 100 % of control
- T/C [3]: 106 % of control
- T/C [5]: 93 % of control
- T/C [6]: 93 % of control

Structure (SMILES): CC(=O)Nc1cc2nc3ccc(C)cc3oc-2c(C)c1=O
- T/C (dose: 0.78 mg/kg/injection, schedule: Q01DX009 (ip), vehicle: other): 113 % of control
- T/C (dose: 1.56 mg/kg/injection, schedule: Q01DX009 (ip), vehicle: other): 98 % of control
- T/C (dose: 3.13 mg/kg/injection, schedule: Q01DX009 (ip), vehicle: other): 98 % of control
- T/C (dose: 6.25 mg/kg/injection, schedule: Q01DX009 (ip), vehicle: other): 103 % of control

Structure (SMILES): CN(NC(=O)C(=O)NCc1ccco1)C(=O)Nc1ccc(Cl)cc1
- T/C [4]: 103 % of control
- T/C [5]: 100 % of control
- T/C [6]: 92 % of control
